Experimental data from paper PMC11189555, “Aryl amino acetamides prevent Plasmodium falciparum ring development via targeting the lipid-transfer protein PfSTART1” (Nature Communications, 2024).

How the values were obtained:
[1] = test system: PopD-D7 M-833 resistant clone (PfSTART1 N309K); assay: Growth inhibition assay (72 h, LDH activity); type: cell-based, Plasmodium falciparum
How it was run: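 Synchronised ring-stage 3D7-derived clones (0.3-0.6% parasitemia, 2% haematocrit) grown 72 h in compound serial dilutions, some with 0, 0.25 or 2.5 mM glucosamine. Growth read as LDH activity after freeze-thaw (Malstat/NBT, A650), normalised to DMSO and uninfected RBC; EC50 from variable-slope log(inhibitor) fit.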

[2] = target: T1, recombinant PfSTART1(WT) (I149-V394) (Plasmodium falciparum, UniProt Q8I298); assay: Isothermal titration calorimetry; type: binding; details: for Differential Power DP_Y / ΔH NDH_Y: PfSTART(WT), ITC replicate data
T1 construct: START domain alone (I149-V394 from PF3D7_0104200); 8xHis tag (N); TEV protease cleavage site (N); made in house; host or cells: Sf21 insect cells (baculovirus)
Description: Codon optimised (Spodoptera frugiperda, Sf) START domain alone (I149-V394 from PF3D7_0104200) was synthesised by Integrated DNA Technologies and cloned into a modified baculovirus transfer vector (pAcGP67-A) with a N-terminal GP67-signal sequence, 8xHis tag, and TEV protease cleavage site. Recombinant baculovirus was generated via the flashBACTM Baculovirus Expression System using Sf21 cells (Life Technologies), amplified to reach a third passage viral stock, and 1.5% used to infect Sf21 for protein expression. After incubation for three days at 28 °C, media containing secreted protein was harvested by centrifugation and supplemented with 50 mM Tris pH 7.5, 20 mM MgCl2, 100 mM NaCl, and 10-20 mM imidazole. The supplemented protein sample was purified by nickel affinity chromatography (HisTrap Excel 5 mL, Cytiva), and eluted with 20 mM Tris pH 7.5, 500 mM NaCl, 300-500 mM imidazole. Eluted fractions were further purified using size-exclusion chromatography (Superdex S75 16/600 or Superdex 10/300, Cytiva) with the column pre-equilibrated with 20 mM HEPES pH 7.5, 150 mM NaCl, and peak-containing fractions concentrated and stored at -80 °C until required. If required, prior to ITC, a second size-exclusion chromatography step was performed to remove soluble aggregates.
ITC experiments were performed on a MicroCal PEAQ-ITC calorimeter at 25 °C, with a stirring speed of 750 rpm and a reference power of 5 μcal/sec. 500 μM M-833 series inhibitor solutions were diluted to 10 μM in 50 mM NaPO4^-3 (pH 7.4), 150 mM NaCl with a final DMSO concentration of 2% (v/v) (cell sample). PfSTART1 protein was dialysed extensively against 50 mM NaPO4^-3 (pH 7.4), 150 mM NaCl, before diluting to 90 μM in the same buffer with 2% (v/v) DMSO (syringe sample). The first injection was 0.4 μL over a 0.8 s duration, and the remaining 19 injections were 2 μL of 4 s duration, with 150 s injection spacing. Data were collected and analysed using the PEAQ-ITC software (MicroCal) and fit by a single site binding model. A fitted offset (constant control heat) was also applied to the integrated heat.

in vitro = details: human

T1 sequence (Q8I298 entry or part of it): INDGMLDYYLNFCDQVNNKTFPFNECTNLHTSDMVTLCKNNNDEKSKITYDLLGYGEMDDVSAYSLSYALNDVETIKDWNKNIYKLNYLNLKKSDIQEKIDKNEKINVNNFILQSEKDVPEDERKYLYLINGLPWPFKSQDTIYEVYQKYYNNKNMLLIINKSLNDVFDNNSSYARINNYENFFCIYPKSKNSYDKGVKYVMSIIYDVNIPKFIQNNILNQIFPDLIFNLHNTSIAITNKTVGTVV

CC(C)(Nc1ccc(Cl)c(S(=O)(=O)N2CCOCC2)c1)C(=O)Nc1ccc(F)c(Cl)c1 [W-991]
EC50 ([1]; Plasmodium falciparum, Supplementary Table 1, PopD-D7 (N309K), 72 h, read-out: EC50): > 200 nM | resistance of the line compared with 3D7 ([1]; PopD-D7 (N309K), Fig 4B): highly resistant | (av-uRBC) / (DMSO-uRBC) x100 ([1]; PopD-D7, 0.0762079 nM, biological replicate 1): 96.5635 | (av-uRBC) / (DMSO-uRBC) x100 ([1]; PopD-D7, 0.0762079 nM, biological replicate 2): 102.6 | (av-uRBC) / (DMSO-uRBC) x100 ([1]; PopD-D7, 0.0762079 nM, biological replicate 3): 87.8712 | (av-uRBC) / (DMSO-uRBC) x100 ([1]; PopD-D7, 0.228624 nM, biological replicate 1): 100.291 | (av-uRBC) / (DMSO-uRBC) x100 ([1]; PopD-D7, 0.228624 nM, biological replicate 2): 103.59 | (av-uRBC) / (DMSO-uRBC) x100 ([1]; PopD-D7, 0.228624 nM, biological replicate 3): 90.7443 | (av-uRBC) / (DMSO-uRBC) x100 ([1]; PopD-D7, 0.685871 nM, biological replicate 1): 102.374 | (av-uRBC) / (DMSO-uRBC) x100 ([1]; PopD-D7, 0.685871 nM, biological replicate 2): 101.183 | (av-uRBC) / (DMSO-uRBC) x100 ([1]; PopD-D7, 0.685871 nM, biological replicate 3): 89.0089 | (av-uRBC) / (DMSO-uRBC) x100 ([1]; PopD-D7, 2.05761 nM, biological replicate 1): 98.4575 | (av-uRBC) / (DMSO-uRBC) x100 ([1]; PopD-D7, 2.05761 nM, biological replicate 2): 102.962 | (av-uRBC) / (DMSO-uRBC) x100 ([1]; PopD-D7, 2.05761 nM, biological replicate 3): 86.5214 | (av-uRBC) / (DMSO-uRBC) x100 ([1]; PopD-D7, 6.17284 nM, biological replicate 1): 97.3005 | (av-uRBC) / (DMSO-uRBC) x100 ([1]; PopD-D7, 6.17284 nM, biological replicate 2): 103.791 | (av-uRBC) / (DMSO-uRBC) x100 ([1]; PopD-D7, 6.17284 nM, biological replicate 3): 87.2349 | (av-uRBC) / (DMSO-uRBC) x100 ([1]; PopD-D7, 18.5185 nM, biological replicate 1): 94.5325 | (av-uRBC) / (DMSO-uRBC) x100 ([1]; PopD-D7, 18.5185 nM, biological replicate 2): 103.019 | (av-uRBC) / (DMSO-uRBC) x100 ([1]; PopD-D7, 18.5185 nM, biological replicate 3): 88.7968 | (av-uRBC) / (DMSO-uRBC) x100 ([1]; PopD-D7, 55.5556 nM, biological replicate 1): 87.2483 | (av-uRBC) / (DMSO-uRBC) x100 ([1]; PopD-D7, 55.5556 nM, biological replicate 2): 102.262 | (av-uRBC) / (DMSO-uRBC) x100 ([1]; PopD-D7, 55.5556 nM, biological replicate 3): 77.42 | (av-uRBC) / (DMSO-uRBC) x100 ([1]; PopD-D7, conc. 166.667 nM, Biological replicate 1 (2021-10-25)): 74.488 | (av-uRBC) / (DMSO-uRBC) x100 ([1]; PopD-D7, conc. 166.667 nM, Biological replicate 2 (2021-11-03)): 97.8669 | (av-uRBC) / (DMSO-uRBC) x100 ([1]; PopD-D7, conc. 166.667 nM, Biological replicate 3 (2021-11-11)): 58.6579 | (av-uRBC) / (DMSO-uRBC) x100 ([1]; PopD-D7, conc. 500 nM, Biological replicate 1 (2021-10-25)): 40.3034 | (av-uRBC) / (DMSO-uRBC) x100 ([1]; PopD-D7, conc. 500 nM, Biological replicate 2 (2021-11-03)): 75.4488 | (av-uRBC) / (DMSO-uRBC) x100 ([1]; PopD-D7, conc. 500 nM, Biological replicate 3 (2021-11-11)): 31.855 | Fold change compared to 3D7 ([1]; Supplementary Table 1, EC50 on PopD-D7 vs 3D7): > 278 fold | Kd ([2]; ITC, 25 °C, 90 µM PfSTART1 titrated into 10 µM compound, n = 2, ± SD): 10 ± 7 nM | ΔH ([2]; ITC, 25 °C, n = 2, ± SD): -12.8 ± 0.1 kcal/mol | −TΔS ([2]; ITC, 25 °C, n = 2, ± SD): 1.8 ± 0.6 kcal/mol | Differential Power DP_Y ([2]; DP_X 0.083333): -0.000146 | Differential Power DP_Y ([2]; DP_X 0.1): 9.8e-5 | ΔH NDH_Y ([2]; NDH_X 0.104703): -13.8427 | ΔH NDH_Y ([2]; NDH_X 0.192876): -12.6755 | CC50 (in vitro): 29000 nM
